Measured values taken from patent US10813914B2, “Composition for controlling microsporidia in fishes and method for controlling microsporidia in fishes using same” (MARUHA NICHIRO CORPORATION, priority 2016, dated 2020).
Marks after values point to notes of the source that are not given here.

What was measured:
[1] = system: microsporidian cyst (beko cyst), beko disease; experiment: Prevention test of beko disease in Mojako using fenbendazole (1-1); assay type: in vivo, “Mojako” (yellowtail larva); details: 20 mg/kg Bw oral, 6 times/week, 6 weeks, 10 fishes tested; for Positive average per fish (average number of beko cyst per fish): p < 0.05 vs control
Description: 1-1: Prevention Test of Beko Disease in “Mojako” Using Fenbendazole
The prevention test was conducted according to the following procedure.
(§1) Test number: Live 1000 fishes (each initial body weight: 12 g)
(§2) Administration method: oral administration (feed together with spreading agent)
Drug used: fenbendazole (compound represented by the above-described formula (1))
(§3) Administration amount: 20 mg/kg Bw (20 mg per kg of fish body weight)
Interval between administration: 6 times/week
A sampling test was carried out according to the following procedure:
Six weeks after the start of administration, each 10 fishes of “Mojako” were taken out from each test group (a control group (the test was conducted under the same conditions as the above-described test conditions, except that the feed fed contained no fenbendazole) and a fenbendazole group), and each fish was cut into three pieces. It was then visually tested whether the microsporidian cyst (beko cyst) was found in the pieces. When the beko cyst was observed, it was judged as positive and the results were accumulated. Regarding the beko cyst that could be confirmed with the naked eye, the number was confirmed and the average infection number per one fish was determined.

[2] = system: microsporidian cyst (beko cyst), beko disease; experiment: Prevention test of beko disease in Mojako using flubendazole (1-2); assay type: in vivo, “Mojako” (yellowtail larva); details: 20 mg/kg Bw oral, 6 times/week, 4 weeks, 10 fishes tested; for Positive average per fish (average number of beko cyst per fish): p < 0.05 vs control
Description: 1-2. Prevention Test of Beko Disease in “Mojako” Using Flubendazole
A preliminary test was carried out according to the following procedure:
as §1, §2
Drug used: flubendazole (compound represented by the above-described formula (6))
as §3
(§4) Administration interval: 6 times/week
Sampling test procedure: same as above 1-1

[3] = system: microsporidian cyst (beko cyst), beko disease; experiment: Prevention test of beko disease in Kanpachi using triclabendazole (1-8); assay type: in vivo, “Kanpachi” (great amberjack); details: 40 mg/kg Bw oral, 6 times/week
Description: A Prevention test of the beko disease in “Kanpachi” was carried out using triclabendazole. The preliminary test was performed according to the following procedure:
Test number: Live 1000 fishes (each initial body weight: 50 g)
as §2
Drug used: triclabendazole (compound represented by the above-described formula (10))
Administration amount: 40 mg/kg Bw (40 mg per kg of fish body weight)
as §4
Sampling test procedure: same as in the above-described 1-1

microsporidia = details: culture test, Non-Patent Documents 3 to 7; cited from earlier work
Glugea plecoglossi = details: glugeosis of Ayu, Non-Patent Document 1; cited from earlier work
Heterosporis anguillarum = details: beko disease of eels, Non-Patent Document 2; cited from earlier work

COC(=O)Nc1nc2cc(Sc3ccccc3)ccc2[nH]1 [Fenbendazole, fenbendazole]
Number of Beko cyst [1]: 30
Number of positive fishes [1]: 6
Positive average per fish (average number of beko cyst per fish) [1]: 3.5 ± 3.83
Positive average per fish (average number of beko cyst per fish) ([1]; listed as fenbendazole): 3.5±3.83

COC(=O)Nc1nc2cc(C(=O)c3ccc(F)cc3)ccc2[nH]1 [Flubendazole, flubendazole]
Number of Beko cyst [2]: 10
Number of positive fishes [2]: 5
Positive average per fish (average number of beko cyst per fish) [2]: 1.0 ± 1.1
Positive average per fish (average number of beko cyst per fish) ([2]; listed as flubendazole): 1.0±1.1

CSc1nc2cc(Cl)c(Oc3cccc(Cl)c3Cl)cc2[nH]1 [Triclabendazole, triclabendazole]
Positive fishes (beko cyst) / fishes sampled ([3]; 8 Weeks, p < 0.001, 40 mg/kg): 0/50***
Positive fishes (beko cyst) / fishes sampled ([3]; 8 Weeks, p < 0.001, listed as triclabendazole, 40 mg/kg): significantly suppressed generation of the beko cyst
Positive fishes (beko cyst) / fishes sampled ([3]; at administration start time): 0/20

CO[C@@H]1[C@H](OC(=O)/C=C/C=C/C=C/C=C/C(=O)O)CC[C@]2(CO2)[C@H]1[C@@]1(C)O[C@@H]1CC=C(C)C [fumagillin]
Antimicrobial activity against microsporidia (microsporidia): high antimicrobial activity
Therapeutic efficacy (Glugea plecoglossi): high therapeutic efficacy was recognized
Therapeutic efficacy (Heterosporis anguillarum): high therapeutic efficacy was recognized
